Results taken from patent US9464128B2, “Site-specific pegylated linear salmon calcitonin analogues” (INSTITUTE OF PHARMACOLOGY AND TOXICOLOGY ACADEMY OF …, priority 2007, dated 2016).

How the values were obtained:
rats [1] = experiment: Calcium-reducing activity, subcutaneous injection to abdomens of rats (blood calcium determination); format: in vivo, rat
Procedure: The calcium-reducing activity of sCT(L)s and their PEGylated analogues was determined by administering them to abdomens of rats via subcutaneous injection, according to the method described in the literature (cf. Qian Deming, Shen Genquan, Ke Ruolun; Biological Assay of Calcitonin by Blood Calcium Determination in Rats, CHINESE JOURNAL OF PHARMACEUTICAL ANALYSIS, 1994, 14(3): 30-34).
The activity results as determined were listed as follows, while the reference activity of salmon calcitonin being 4500 IU/mg.

female Wistar rats [2] = experiment: Long-acting performance study: bone metabolism (alkaline phosphatase, serum calcium, osteocalcin) in castrated rats; format: in vivo, rat; settings: for Alkaline phosphatase / Osteocalcin / Serum calcium: n = 10
Procedure: (§1) 60 female Wistar rats, body weight 250-280 g, 16 weeks aged, were randomly divided into six groups: pseudo-castrated contrast group (10 rats); castrated contrast group (10 rats); calcitonin group (10 rats, twice every week, 0.036 μg/kg body weight/time); a low dose group of compound 12 (10 rats, twice every week, 0.216 μg/kg body weight/time); a high dose group of compound (10 rats, twice every week, 1.08 μg/kg body weight/time); and a high dose group of compound (10 rats, once every week, 1.08 μg/kg body weight/time). In each of the groups, the administration was given subcutaneously. During the experiment, the rats in each of the groups freely fed on standard solid forage and drank water. Except for the high dose group of compound 12 with administration once every week, blood samples were respectively taken from the orbits of the rats in other groups at the 6th week of administration, and subjected to the determination of osteocalcin, serum calcium and alkaline phosphatase (Table 2). At the end of the 12th week of administration, in addition to osteocalcin, serum calcium and alkaline phosphatase (Table 3), the bone densities of lumbar vertebrae, tibia and femur in the rats of each of the groups were determined (Table 4).

female Wistar rats [3] = experiment: Long-acting performance study: bone density of lumbar vertebrae, femur and tibia in castrated rats; format: in vivo, rat; settings: for Bone density, lumbar vertebrae / Bone density, tibia / Bone density, femur: 12th week, n = 10; for influence on bone density of lumbar vertebrae (in words): 12 weeks, high dose group of compound 12, positive contrast sCT group
Procedure: as §1

rats [4] = settings: reference standard; cited from earlier work
[5] = kidney homogenate; cited from earlier work
[6] = 6th week, high dose 1.08 μg/kg s.c. twice every week
[7] = 6th week, low dose 0.216 μg/kg s.c. twice every week
[8] = 12th week, high dose 1.08 μg/kg s.c. twice every week
[9] = 12th week, low dose 0.216 μg/kg s.c. twice every week
[10] = high dose 1.08 μg/kg s.c. once/week
[11] = high dose 1.08 μg/kg s.c. twice/week
[12] = low dose 0.216 μg/kg s.c. twice/week
[13] = 6th week, 0.036 μg/kg s.c. twice every week
[14] = 12th week, 0.036 μg/kg s.c. twice every week

[D-Ala^1,Cys^7(mPEG5000-MAL),D-Ala^30]sCT [Compound 12]
Activity (calcium-reducing activity) (rats [1]): 1467 IU/mg | Alkaline phosphatase (female Wistar rats [2]; [6]): 180.0 ± 19.4 u/100 ml | Osteocalcin (female Wistar rats [2]; [6]): 3.81 ± 0.24 ng/100 ml | Serum calcium (female Wistar rats [2]; [6]): 9.2 ± 0.2 mg/100 ml | Alkaline phosphatase (female Wistar rats [2]; [7]): 187.0 ± 30.4 u/100 ml | Osteocalcin (female Wistar rats [2]; [7]): 3.77 ± 0.25 ng/100 ml | Serum calcium (female Wistar rats [2]; [7]): 9.8 ± 0.3 mg/100 ml | Alkaline phosphatase (female Wistar rats [2]; [8]): 188.2 ± 51.2 u/100 ml | Osteocalcin (female Wistar rats [2]; [8]): 3.95 ± 0.24 ng/100 ml | Serum calcium (female Wistar rats [2]; [8]): 9.4 ± 0.4 mg/100 ml | Alkaline phosphatase (female Wistar rats [2]; [9]): 202.4 ± 44.8 u/100 ml | Osteocalcin (female Wistar rats [2]; [9]): 4.01 ± 0.25 ng/100 ml | Serum calcium (female Wistar rats [2]; [9]): 9.8 ± 0.3 mg/100 ml | influence on bone metabolism of rats compared with sCT group (in words) (female Wistar rats [2]; high dose group, 6th and 12th weeks of administration): substantially equivalent to the positive contrast sCT group | Bone density, lumbar vertebrae (female Wistar rats [3]; [10]): 0.182 ± 0.014 g/cm^2 | Bone density, tibia (female Wistar rats [3]; [10]): 0.251 ± 0.015 g/cm^2 | Bone density, femur (female Wistar rats [3]; [11]): 0.241 ± 0.017 g/cm^2 | Bone density, lumbar vertebrae (female Wistar rats [3]; [11]): 0.181 ± 0.018 g/cm^2 | Bone density, tibia (female Wistar rats [3]; [11]): 0.256 ± 0.017 g/cm^2 | Bone density, femur (female Wistar rats [3]; [12]): 0.240 ± 0.028 g/cm^2 | Bone density, lumbar vertebrae (female Wistar rats [3]; [12]): 0.175 ± 0.021 g/cm^2 | Bone density, tibia (female Wistar rats [3]; [12]): 0.245 ± 0.014 g/cm^2 | influence on bone density of lumbar vertebrae (in words) (female Wistar rats [3]): increased the bone density of lumbar vertebrae

[D-Ala^1,Cys^7,D-Ala^30]sCT [Compound 1]
Activity (calcium-reducing activity) (rats [1]): 5202 IU/mg

[Val^1, Ala^7, Cys^16(mPEG5000-MAL), Des-19-22, Ala^30]sCT [Compound 14]
Activity (calcium-reducing activity) (rats [1]): 987 IU/mg

[Val^1, Ala^7, Cys^19(mPEG5000-MAL),Des-20-22, Ala^30]sCT [Compound 21]
Activity (calcium-reducing activity) (rats [1]): 1208 IU/mg

[Val^1, Cys^7(mPEG5000-MAL),Des-19-22, Ala^30]sCT [Compound 16]
Activity (calcium-reducing activity) (rats [1]): 717 IU/mg

[Val^1,Ala^7,Cys^16,Ala^30,Des-19-22]sCT [Compound 3]
Activity (calcium-reducing activity) (rats [1]): 3394 IU/mg

[Val^1,Ala^7,Cys^19(mPEG5000-MAL),Des-20-21, Ala^30]sCT [Compound 22]
Activity (calcium-reducing activity) (rats [1]): 1707 IU/mg

[Val^1,Ala^7,Cys^19,Ala^30,Des-20-21]sCT [Compound 11]
Activity (calcium-reducing activity) (rats [1]): 379 IU/mg

[Val^1,Ala^7,Cys^19,Ala^30,Des-20-22]sCT [Compound 10]
Activity (calcium-reducing activity) (rats [1]): 892 IU/mg

[Val^1,Ala^7,Gln^11,18,Cys^16(mPEG5000-MAL),Des-19-22,Ala^30]sCT [Compound 15]
Activity (calcium-reducing activity) (rats [1]): 301 IU/mg

[Val^1,Ala^7,Gln^11,18,Cys^16,Ala^30,Des-19-22]sCT [Compound 4]
Activity (calcium-reducing activity) (rats [1]): 807 IU/mg

[Val^1,Cys^7(mPEG5000-MAL), Gln^11,18,Des-19-22,Ala^30]sCT [Compound 20]
Activity (calcium-reducing activity) (rats [1]): 1265 IU/mg

[Val^1,Cys^7(mPEG5000-MAL), Gln^11,Des-19-22, Ala^30]sCT [Compound 19]
Activity (calcium-reducing activity) (rats [1]): 815 IU/mg

[Val^1,Cys^7(mPEG5000-MAL), Gln^18,Des-19-22, Ala^30]sCT [Compound 18]
Activity (calcium-reducing activity) (rats [1]): 763 IU/mg

[Val^1,Cys^7(mPEG5000-MAL),Des-19,Ala^30]sCT [Compound 13]
Activity (calcium-reducing activity) (rats [1]): 438 IU/mg

[Val^1,Cys^7(mPEG5000-MAL),Des-19,Ala^30]sCT [Compound 17]
Activity (calcium-reducing activity) (rats [1]): 1921 IU/mg

[Val^1,Cys^7,Ala^30,Des-19]sCT [Compound 6]
Activity (calcium-reducing activity) (rats [1]): 4347 IU/mg

[Val^1,Cys^7,Des-19,Ala^30]sCT [Compound 2]
Activity (calcium-reducing activity) (rats [1]): 1136 IU/mg

[Val^1,Cys^7,Des-19-22,Ala^30]sCT [Compound 5]
Activity (calcium-reducing activity) (rats [1]): 67 IU/mg

[Val^1,Cys^7,Gln^11,18,Ala^30,Des-19-22]sCT [Compound 9]
Activity (calcium-reducing activity) (rats [1]): 920 IU/mg

[Val^1,Cys^7,Gln^11,Ala^30,Des-19-22]sCT [Compound 8]
Activity (calcium-reducing activity) (rats [1]): 344 IU/mg

[Val^1,Cys^7,Gln^18,Ala^30,Des-19-22]sCT [Compound 7]
Activity (calcium-reducing activity) (rats [1]): 233 IU/mg

salmon calcitonin [reference compound]
Alkaline phosphatase (female Wistar rats [2]; [13]): 179.8 ± 31.4 u/100 ml | Osteocalcin (female Wistar rats [2]; [13]): 3.90 ± 1.1 ng/100 ml | Serum calcium (female Wistar rats [2]; [13]): 9.3 ± 0.2 mg/100 ml | Alkaline phosphatase (female Wistar rats [2]; [14]): 200.9 ± 40.1 u/100 ml | Osteocalcin (female Wistar rats [2]; [14]): 3.38 ± 0.17 ng/100 ml | Serum calcium (female Wistar rats [2]; [14]): 9.3 ± 0.2 mg/100 ml | Bone density, femur (female Wistar rats [3]; 0.036 μg/kg s.c. twice/week): 0.242 ± 0.027 g/cm^2 | Bone density, lumbar vertebrae (female Wistar rats [3]; 0.036 μg/kg s.c. twice/week): 0.181 ± 0.013 g/cm^2 | Bone density, tibia (female Wistar rats [3]; 0.036 μg/kg s.c. twice/week): 0.247 ± 0.127 g/cm^2 | influence on bone density of lumbar vertebrae (in words) (female Wistar rats [3]): increased the bone density of lumbar vertebrae | reference activity of salmon calcitonin (rats [4]): 4500 IU/mg | metabolic half life [5]: 4.8 min
